Tested on: Sprague-Dawley rats
Assay: Brain amino acid analyses
Format: in vivo, Rattus norvegicus
Set-up: key to Glutathione, trend over total doses: D: significant dose response (for results, see Table 2); T: significant trend
Method: The right hemisphere of cerebrum was rapidly weighed and homogenized in ice cold 7% HClO4 [35] using a glass/teflon Potter-Elvehjem homogenizer (Schwaben Prazision Nordlingen type L43). α-Amino adipic acid was used as internal standard. Samples were neutralized to pH 6.5–7.5 with ice cold KOH/HCl and centrifuged for 20 min at 20 000 g and 4°C in a Sorvall RMC-14-micro centrifuge. Pellets were frozen at −40°C for later protein determination by the BCA-assay. Supernatants were stored at −40°C, filtered with Nylon-66 micro filters (mesh 0.22 µm; Nalgene) prior to HPLC analysis.
Total amino acids in extracts were analyzed, using a reversed-phase HPLC (ChromSpher 5 C18 column; length 25 cm, inner diameter 4.6 mm; Varian) fitted with a fluorescence detector (Shimadzu, Kyoto, Japan), after derivatization with o-phthaldialdehyde (OPA; Sigma). […] Each sample was eluted for 45 min with a flow rate of 0.4 ml/min. A mixture of the amino acids of interest was run as external standards at 100 µM. L-Amino acid standards for aspartic acid, glutamic acid, serine, glutamine, glycine and alanine] were obtained from Pierce (Rockford, Ill., USA), whereas taurine, γ-amino butyric acid, glutathione and α-amino adipic acid standards were from Sigma-Aldrich. Chromatograms were analyzed using the software Lab Solutions (Shimadzu).

[1] = brain, females, total dose 10 mg/kg bw, n 1
[2] = brain, females, total dose 30 mg/kg bw
[3] = brain, females, total dose 300 mg/kg bw
[4] = brain, females, total dose 1000 mg/kg bw
[5] = brain, males, total dose 10 mg/kg bw
[6] = brain, males, total dose 30 mg/kg bw
[7] = brain, males, total dose 300 mg/kg bw
[8] = brain, males, total dose 1000 mg/kg bw

Clc1cc(Cl)c(-c2cc(Cl)c(Cl)c(Cl)c2Cl)cc1Cl [PCB 180, 2,2′,3′,4,4′,5,5′-heptachlorobiphenyl]
Amino acid concentration in cerebrum vs controls (both genders, 10, 30, 300 or 1000 mg/kg bw): did not show significant differences
Alanine [1]: 14.25 nmol/mg protein
Aspartate [1]: 71.05 nmol/mg protein
Glutamate [1]: 124 nmol/mg protein
Glutamine [1]: 85.95 nmol/mg protein
Glutathione [1]: 16.96 nmol/mg protein
Glycine [1]: 43.99 nmol/mg protein
Serine [1]: 17.81 nmol/mg protein
Taurine [1]: 113.1 nmol/mg protein
γ-Amino butyric acid [1]: 42.71 nmol/mg protein
Alanine [2]: 12.67 nmol/mg protein
Aspartate [2]: 60.52 nmol/mg protein
Glutamate [2]: 110 nmol/mg protein
Glutamine [2]: 82.24 nmol/mg protein
Glutathione [2]: 12.19 nmol/mg protein
Glycine [2]: 43.93 nmol/mg protein
Serine [2]: 17.02 nmol/mg protein
Taurine [2]: 98.12 nmol/mg protein
γ-Amino butyric acid [2]: 40.16 nmol/mg protein
Alanine [3]: 13.51 nmol/mg protein
Aspartate [3]: 61.77 nmol/mg protein
Glutamate [3]: 111 nmol/mg protein
Glutamine [3]: 87.85 nmol/mg protein
Glutathione [3]: 11.70 nmol/mg protein
Glycine [3]: 48.50 nmol/mg protein
Serine [3]: 17.18 nmol/mg protein
Taurine [3]: 95.21 nmol/mg protein
γ-Amino butyric acid [3]: 41.47 nmol/mg protein
Alanine [4]: 13.04 nmol/mg protein
Aspartate [4]: 59.40 nmol/mg protein
Glutamate [4]: 109 nmol/mg protein
Glutamine [4]: 79.65 nmol/mg protein
Glutathione [4]: 10.79 nmol/mg protein
Glycine [4]: 43.12 nmol/mg protein
Serine [4]: 16.71 nmol/mg protein
Taurine [4]: 97.62 nmol/mg protein
γ-Amino butyric acid [4]: 40.90 nmol/mg protein
Alanine [5]: 11.68 nmol/mg protein
Aspartate [5]: 59.00 nmol/mg protein
Glutamate [5]: 110 nmol/mg protein
Glutamine [5]: 81.50 nmol/mg protein
Glutathione [5]: 12.48 nmol/mg protein
Glycine [5]: 38.78 nmol/mg protein
Serine [5]: 17.39 nmol/mg protein
Taurine [5]: 93.04 nmol/mg protein
γ-Amino butyric acid [5]: 36.29 nmol/mg protein
Alanine [6]: 12.16 nmol/mg protein
Aspartate [6]: 60.01 nmol/mg protein
Glutamate [6]: 106 nmol/mg protein
Glutamine [6]: 68.58 nmol/mg protein
Glutathione [6]: 11.48 nmol/mg protein
Glycine [6]: 38.07 nmol/mg protein
Serine [6]: 16.11 nmol/mg protein
Taurine [6]: 93.22 nmol/mg protein
γ-Amino butyric acid [6]: 36.82 nmol/mg protein
Alanine [7]: 13.02 nmol/mg protein
Aspartate [7]: 58.39 nmol/mg protein
Glutamate [7]: 111 nmol/mg protein
Glutamine [7]: 76.57 nmol/mg protein
Glutathione [7]: 10.37 nmol/mg protein
Glycine [7]: 39.90 nmol/mg protein
Serine [7]: 17.20 nmol/mg protein
Taurine [7]: 95.86 nmol/mg protein
γ-Amino butyric acid [7]: 36.14 nmol/mg protein
Alanine [8]: 12.29 nmol/mg protein
Aspartate [8]: 54.56 nmol/mg protein
Glutamate [8]: 103 nmol/mg protein
Glutamine [8]: 72.52 nmol/mg protein
Glutathione [8]: 9.97 nmol/mg protein
Glycine [8]: 40.40 nmol/mg protein
Serine [8]: 16.45 nmol/mg protein
Taurine [8]: 88.63 nmol/mg protein
γ-Amino butyric acid [8]: 35.69 nmol/mg protein
Glutathione, trend over total doses (brain, males, total doses 0-1000 mg/kg bw): T
Cerebrum glutathione concentration, max. decrease (males, at 1000 mg/kg): 18%

From paper PMC4138103 (PLoS ONE, 2014)
